Experimental data from patent US5428048A, “Aryl-N-hydroxyureas as inhibitors of 5-lipoxygenase and anto-arteriosclerotic agents” (American Home Products Corporation, priority 1993, dated 1995).

Assays:
[1] = test system: Lipoxygenase; experiment: Ex-Vivo Measurement of Lipoxygenase Inhibition in Orally Dosed Rats (LTB4 in A23187-stimulated blood); parameters: species or system Male Sprague Dawley rats; settings: ex vivo rat, p.o.
Protocol: 2. […] After an interval of 3 or 6 hours, the rats were anesthetized with metofane (n =4/group) and blood collected in heparinized tubes. White blood cell counts and differentials were made. One ml of blood from each animal was placed in a 5 ml plastic tube in a shaker bath at 37° C. A23187 at a final concentration of 10 μM was added to the blood and the blood vortexed and incubated for 15 min at 37° C. with gentle shaking. Incubation was terminated by vortexing sample and centrifuging immediately at 1200 xG for 15 min at 4° C. The plasma was transferred to 15 ml plastic tubes each containing 8 ml of methanol to precipitate protein followed by vortexing. The samples were stored at -70° C. overnight and the next day the samples were centrifuged at 800 xG for 15 min to pellet the precipitate. The samples were dried in a Savant SpeedVac Concentrator Model SVC 200H and reconstituted to the original volume with cold RIA or ELISA buffer. The reconstituted samples were stored at -70° C. until assayed. The assay for LTB4 was perforated according to the directions of the [^3 H]RIA kit or ELISA kit (Seragen). The total metabolite level in 1 ml of blood is calculated and reported as ng/10^6 neutrophils. Significance is determined by a one-way analysis of variance with LSD comparisons to control (p<0.05).

[2] = test system: LT-dependent bronchoconstriction; experiment: Inhibition of Bronchoconstriction in Guinea Pigs Induced by Exogenously Administered Antigen; type: in vivo, Male guinea pigs
Protocol: 4. Inhibition of Brochoconstriction in Guinea Pigs Induced by Exogenously Administered Antigen
Male guinea pigs (Charles River, Wilmington, Mass.) were sensitized 3-4 weeks prior to antigen challenge by administration of 2 i.m. injections of ovalbumin, 1 into each hind limb (35 mg total). Sensitized animals (500-600 g) were fasted overnight prior to experimentation. Conscious animals were then dosed p.o. with drug or vehicle alone (0.5% Tween 80 in H2 O) at the indicated times prior to antigen challenge, or anesthetized animals were dosed i.v. with drug or vehicle alone (DMSO) 5 min prior to antigen challenge. Animals were anesthetized by urethane (2.8 g/kg i.p.). A carotid artery and jugular vein were cannulated to allow for the monitoring of blood pressure and the administration of drugs, respectively. The trachea was then cannulated and connected to a Harvard Apparatus rodent ventilator (S. Natick, Mass.). Spontaneous respiration was abolished by the administration of succinylcholine (2.5 mg/kg i.v.). The animals were then ventilated with room air at a rate of 65 breaths per min. Airway inflation pressure was measured using a Statham pressure transducer (Gould Instruments, Cleveland, Ohio) connected to the tracheal cannula via a side-arm and recorded on a Grass Instruments recorder (Quincy, Mass.). The tidal volume (approximately 10 cc/kg) was adjusted to give a baseline inflation pressure of 8-10 cm H2 O at end inspiration. Animals were then allowed 20 min to stabilize.
Following the stabilization period, animals were given i.v. injections of pyrilamine (5 mg/kg), propranolol (0.1 mg/kg) and indomethacin (10 mg/kg) at 15, 10 and 5 min, respectively, prior to antigen challenge. This pretreatment results in an LT-dependent bronchoconstriction following antigert challenge, which was accomplished by i.v. administration of ovalbumin (10 mg/kg). Only one bronchoconstriction per animal was induced. End-inspiratory inflation pressure (in cm H2 O over baseline) was measured at 5 min post-antigen challenge. A mean value and standard error for the % inhibition of control bronchoconstriction in each drug-treated group was then calculated.

[3] = test system: Low Density Lipoprotein; experiment: Inhibition of Copper Ion Mediated Oxidation of Low Density Lipoprotein; type: biochemical; settings: Cu+2 mediated oxidation of rabbit or monkey LDL, 37° C., 90 minutes, 532 nm
Protocol: 5. Inhibition of Copper Ion Mediated Oxidation of Low Density Lipoprotein
In this in vitro assay, the inhibition of Cu^+2 mediated oxidation of rabbit or monkey LDL by an invention compound is determined spectrophotometricallly. Oxidation of LDL results in the formation of LDL-diene which absorbs light at 532 nm. Inhibition of oxidation of LDL leads to a decrease in absorbance at 532 nm.
Rabbit or monkey LDL is prepared according to the procedures of Havel, Eder and Gragdon, "The Distribution and Chemical Composition of Ultracentrifugally Separated Lipoproteins in Human Serum,: J. Clin. Invest. 34, 1345-1353 (1955) and Parhtasarathy, Wieland and Steriberg, "A Role for Endothelial Cell Lipoxygenase in the Oxidative Modification of Low Density Lipoprotein," Proc. Natl. Acad. Sci. USA 86, 1046-1050 (1989). Test compound solutions are prepared by dissolving the invention compounds in ethanol at concentrations up to 248 μM. The medium used is Dulbecco's phosphate buffered saline containing 0.5 mg/ml bovine serum albumin. For standards, 0 to 10 μl of an aqueous solution of 1,1,3,3-tetraethoxypropane (1 μmol/ml H2 O) in 4.1 ml of medium is used.
Test compound solution ([…]) is added to 4 ml of medium in incubation tubes. To each tube is added 10 μl of LDL solution and 25 μl of aqueous copper sulfate solution (1.32 mg/ml H2 O). The tubes are incubated at 37° C. for 90 minutes and the oxidation reaction quenched by addition of 1 ml of thiobarbituric acid solution (0.67% in 50% acetic acid). The tubes are heated at 90° C. for 1 hour, then chilled in an ice bath and the chromophore extracted into 2 ml of n-butanol. Absorbence is read at 532 nm and the results are reported as nmols of malondialdehyde equivalents.
Significant differences (p<0.05) are determined by the Dunnett T-test or by the Student-Newman-Keuls Test for significant differences between means. The assay is conducted using several concentrations [I] of the inhibitor test compounds. The LDL solution concentrations at different experiments were either 1.5 mg/ml, 2.5 mg/ml or 10.3 mg/ml. The IC50 is determined by non-linear regression, plotting log [I] vs. % inhibition. (Reference: K. Yagi, Biochemical Medicine 15,212-216 (1976)).

[4] = dose 25 (mg/kg), pretreatment 3 hr

IC50 [3] [µM]	Structure (SMILES)	% Inhibition of LTB4 [1, 4] [%]	Bronchoconstriction % Inhibition ([2]; 20 mg/kg i.v.) [%]	Bronchoconstriction % Inhibition ([2]; 25 mg/kg aerosol) [%]	Bronchoconstriction % Inhibition ([2]; 25 mg/kg p.o.) [%]	% Inhibition of LTB4 ([1]; dose 5 (mg/kg), pretreatment 6 hr) [%]	Bronchoconstriction % Inhibition ([2]; 10 mg/kg i.v.) [%]	Bronchoconstriction % Inhibition ([2]; 10 mg/kg p.o.) [%]	% Inhibition of LTB4 ([1]; dose 1 (mg/kg), pretreatment 6 hr) [%]
0.69	Cc1oc(-c2ccccc2)nc1CCOc1ccc(CN(O)C(N)=O)cc1 [Example 1]	79	66	67	25				
1.3	Cc1oc(-c2ccccc2)nc1CCOc1ccc(C(C)N(O)C(N)=O)cc1 (centres unmarked) [Example 4]	57		51					
	NC(=O)N(O)Cc1ccc(OCCc2noc(-c3ccccc3)n2)cc1 [Example 21, 1-hydroxy-1-[4-[2-(5-phenyl-[1,2,4]-oxadiazol-3-yl)-ethoxy]-benzyl]-urea]					60	58	34	
0.82	Cc1oc(-c2ccc(C(F)(F)F)cc2)nc1CCOc1ccc(CN(O)C(N)=O)cc1 [Example 13, 1-Hydroxy-1-[4-[2-[5-methyl-2(4-trifluoromethyl-phenyl)-oxazol-4-yl]-ethoxy]benzyl]-urea]		23						50
